Experimental data as given in BigSolDB 2.1.

COc1cc(-c2cc(-c3ccc(Br)cc3)[nH]c(=O)c2C#N)ccc1O
solubility (mole fraction)
Conditions | in 1,4-dioxane | in chloroform | in ethanol | in ethyl acetate | in methanol | in n-butanol | in n-propanol
298.15 K | 0.0014 | 0.00114 | 0.00071 | 0.00109 | 0.000523 | 0.000338 | 0.000757
303.15 K | 0.00148 | 0.00119 | 0.00075 | 0.00116 | 0.000555 | 0.000384 | 0.0008
308.15 K | 0.00155 | 0.00123 | 0.000789 | 0.00124 | 0.000587 | 0.00043 | 0.000843
313.15 K | 0.00163 | 0.00128 | 0.000832 | 0.00132 | 0.000615 | 0.000484 | 0.0009
318.15 K | 0.0017 | 0.00133 | 0.000876 | 0.0014 | 0.000642 | 0.000538 | 0.000951
323.15 K | 0.00177 | 0.00137 | 0.000919 | 0.00148 | 0.000682 | 0.000614 | 0.000997
328.15 K | 0.00184 | 0.00142 | 0.000972 | 0.00156 | 0.000722 | 0.000691 | 0.00105

COc1ccc(-c2cc(-c3ccc(O)c(OC)c3)c(C#N)c(=O)[nH]2)cc1
solubility (mole fraction)
Conditions | in 1,4-dioxane | in chloroform | in ethanol | in ethyl acetate | in methanol | in n-butanol | in n-propanol
298.15 K | 0.00145 | 0.00111 | 0.00069 | 0.00107 | 0.000472 | 0.000297 | 0.000733
303.15 K | 0.00154 | 0.00116 | 0.000724 | 0.00115 | 0.000502 | 0.000344 | 0.000782
308.15 K | 0.00162 | 0.0012 | 0.000759 | 0.00123 | 0.000532 | 0.000389 | 0.000827
313.15 K | 0.00171 | 0.00124 | 0.000802 | 0.00129 | 0.000562 | 0.000443 | 0.000886
318.15 K | 0.0018 | 0.00129 | 0.000846 | 0.00136 | 0.000592 | 0.000497 | 0.000934
323.15 K | 0.00189 | 0.00134 | 0.000899 | 0.00145 | 0.000625 | 0.000565 | 0.00098
328.15 K | 0.00199 | 0.00138 | 0.000953 | 0.00154 | 0.000659 | 0.000633 | 0.00103

COc1cc(-c2cc(-c3ccc(O)cc3)[nH]c(=O)c2C#N)ccc1O
solubility (mole fraction)
Conditions | in 1,4-dioxane | in chloroform | in ethanol | in ethyl acetate | in methanol | in n-butanol | in n-propanol
298.15 K | 0.00153 | 0.00123 | 0.000745 | 0.00106 | 0.000574 | 0.000511 | 0.000847
303.15 K | 0.00161 | 0.0013 | 0.000786 | 0.00111 | 0.000605 | 0.000566 | 0.000882
308.15 K | 0.00169 | 0.00137 | 0.000828 | 0.00117 | 0.000635 | 0.00062 | 0.000927
313.15 K | 0.00178 | 0.00144 | 0.000876 | 0.00122 | 0.000664 | 0.000674 | 0.00098
318.15 K | 0.00187 | 0.00151 | 0.000922 | 0.00127 | 0.000693 | 0.000728 | 0.00104
323.15 K | 0.00195 | 0.00157 | 0.000976 | 0.00134 | 0.000724 | 0.000794 | 0.00111
328.15 K | 0.00203 | 0.00164 | 0.00103 | 0.0014 | 0.000754 | 0.000861 | 0.00116

COc1cc(-c2cc(-c3ccc(Cl)cc3)[nH]c(=O)c2C#N)ccc1O
solubility (mole fraction)
Conditions | in 1,4-dioxane | in chloroform | in ethanol | in ethyl acetate | in methanol | in n-butanol | in n-propanol
298.15 K | 0.00149 | 0.00118 | 0.00073 | 0.00123 | 0.000577 | 0.0004 | 0.000791
303.15 K | 0.00156 | 0.00123 | 0.00077 | 0.00132 | 0.000603 | 0.000445 | 0.000836
308.15 K | 0.00163 | 0.00129 | 0.00081 | 0.0014 | 0.000629 | 0.000489 | 0.000882
313.15 K | 0.00172 | 0.00135 | 0.000861 | 0.0015 | 0.000653 | 0.000549 | 0.000929
318.15 K | 0.00181 | 0.00141 | 0.000905 | 0.00159 | 0.000677 | 0.000609 | 0.000976
323.15 K | 0.00189 | 0.00149 | 0.000948 | 0.00168 | 0.000705 | 0.000672 | 0.00102
328.15 K | 0.00197 | 0.00157 | 0.001 | 0.00177 | 0.000732 | 0.000735 | 0.00107

COc1cc(-c2cc(-c3ccc(F)cc3)[nH]c(=O)c2C#N)ccc1O
solubility (mole fraction)
Conditions | in 1,4-dioxane | in chloroform | in ethanol | in ethyl acetate | in methanol | in n-butanol | in n-propanol
298.15 K | 0.00156 | 0.00134 | 0.000762 | 0.00133 | 0.000618 | 0.000531 | 0.000864
303.15 K | 0.00164 | 0.00139 | 0.000809 | 0.00142 | 0.000638 | 0.000589 | 0.000907
308.15 K | 0.00173 | 0.00145 | 0.000848 | 0.0015 | 0.000658 | 0.000648 | 0.00095
313.15 K | 0.00183 | 0.00151 | 0.000897 | 0.0016 | 0.000688 | 0.000707 | 0.00101
318.15 K | 0.00193 | 0.00158 | 0.000946 | 0.00169 | 0.000718 | 0.000767 | 0.00108
323.15 K | 0.00202 | 0.00167 | 0.001 | 0.00178 | 0.000754 | 0.000835 | 0.00113
328.15 K | 0.00211 | 0.00176 | 0.00106 | 0.00187 | 0.00079 | 0.000903 | 0.00119
